According to patent US9394299B2, “Rilyazine derivatives and compositions for the treatment of cancer” (Warner Babcock Institute for Green Chemistry, LLC, priority 2013, dated 2016):

Legend:
[1] = tested on: NCI-H552 (non-small cell lung cancer); assay: NCI single point 10 μM, NCI-H552; type: cell-based, human; details: 10^−5 M
Experimental: The screening is a two-stage process, beginning with the evaluation of all compounds against 60 cell lines at a single dose of 10^−5 M.
(§1) The human tumor cell lines of the cancer screening panel are grown in RPMI 1640 medium containing 5% fetal bovine serum and 2 mM L-glutamine. Cells are inoculated into 96 well microtiter plates in 100 μL at plating densities ranging from 5,000 to 40,000 cells/well depending on the doubling time of individual cell lines. After cell inoculation, the microtiter plates are incubated at 37° C., 5% CO2, 95% air and 100% relative humidity for 24 h prior to addition of experimental drugs. […]
(§2) Following drug addition, the plates are incubated for an additional 48 h at 37° C., 5% CO2, 95% air, and 100% relative humidity. […] Bound stain is subsequently solubilized with 10 mM trizma base, and the absorbance is read on an automated plate reader at a wavelength of 515 nm. […]
For the 1-dose 60 cell testing, the Growth Percent is calculated for each cell line/drug combination from the absorbance measurement for the no-drug control (C), the absorbance at time zero (Tz) and the absorbance measurement after incubation of the cells in the presence of drug (Ti): Growth Percent=[(Ti−Tz)/(C−Tz)]×100 for cell line/drug combinations for which Ti≧Tz. […]

COLO 205 (Colon Cancer) = assay: NCI five point dosing, COLO 205; type: cell-based; details: Homo sapiens, read-out: LC50 (the source's name)
Experimental: RL-4 was evaluated against the 60 cell panel at five concentration levels, 10^−8 M, 10^−7 M, 10^−6 M, 10^−5 M and 10^−4 M.
as §1, §2
The percentage growth is calculated at each of the five drug concentrations levels using the seven absorbance measurements, namely absorbance at time zero (Tz), absorbance of control after incubation (C), and absorbance of test sample after incubation in the presence of drug at each of the five concentration levels (Ti). The Growth Percent is calculated as it was for the 1 dose assay: Growth Percent=[(Ti−Tz)/(C−Tz)]×100 for cell line/drug combinations for which Ti≧Tz. […]

Colo-205 cells = assay: MTT cell proliferation assay, Colo-205; type: cell-based; details: 72 h-exposure, 30-0.041 μM
Experimental: In vitro characterizing of the effects of rilyazine analogs on cell proliferation and apoptosis in the paired epithelial/mesenchymal lines (Colo205/Colo-R, DLD/DLD-SNAIL and MCF7/MCF7-WISP) was performed in an independent laboratory.
The Dose Preparation is based on a reconstitute in DMSO. The Concentration of the stock solution is 100 mM. Storage of the stock solution is under −80° C.
Working drug solution of rilyazine analogs: A stock solution of 100 mM OTX015 in DMSO was prepared and stored at −80° C. For growth inhibition studies, dilution series were prepared by (1) diluting stock solution into DMSO, then (2) diluting 1:300 in culture medium supplemented with 10% FBS giving a final concentration in 0.3% DMSO in the 96-well plates.
Cell lines. Cells lines were maintained in RPMI 1640 (PAA Laboratories, France) supplemented with 10% fetal bovine serum (FBS; PAA Laboratories, France), 2 mM glutamine (PAA Laboratories, France), 100 units/ml penicillin and 100 μg/ml streptomycin (PAA Laboratories, France). Cells were free of Mycoplasma.
Proliferation assays. Cell proliferation was determined using the MTT assay (3-[4,5-dimethylthiazol-2-yl]-2,5-diphenyltetrazolium bromide; Sigma-Aldrich, St. Louis, Mo.). […] After incubation, the supernatant was discarded, the cell pellet was resuspended in 0.1 mL DMSO, and the absorbance was measured at 560 nm using a microplate reader (Thermo, France). […]

## S=c1c2ncccc2c(-c2ccccn2)nn1C1CCCCC1 [RL-4, 7-cyclohexyl-5-(pyridin-2-yl)pyrido[2,3-d]pyridazine-8(7H)-thione]
[1]
  Growth Percent: 91.26%
COLO 205 (Colon Cancer)
  CC50: 85.8 µM
Colo-205 cells
  anti-proliferative effects (in words): dose-dependent anti-proliferative effects
